From publication PMC4194318, “Genetic and pharmacological evidence that G2019S LRRK2 confers a hyperkinetic phenotype, resistant to motor decline associated with aging” (Neurobiology of Disease, 2014)

Key:
[1] = molecular target: T1, LRRK2 (leucine-rich repeat kinase 2) (Mus musculus, UniProt Q5S006); experiment: Western blot of LRRK2 pSer935 in NIH3T3 cells, […] min; also ex vivo mouse striatum and cortex; assay type: cell-based
T1 construct: endogenous LRRK2 in NIH3T3 cells

[2] = molecular target: T2, LRRK2 (leucine-rich repeat kinase 2) (Mus musculus, UniProt Q5S006, G2019S); experiment: ex vivo Western blot of LRRK2 pSer935, […] min after […] mg/kg i.p.; assay type: cell-based
T2 construct: endogenous LRRK2 in striatum of G2019S knock-in mice
T2 sequence (Q5S006 whole entry G2019S): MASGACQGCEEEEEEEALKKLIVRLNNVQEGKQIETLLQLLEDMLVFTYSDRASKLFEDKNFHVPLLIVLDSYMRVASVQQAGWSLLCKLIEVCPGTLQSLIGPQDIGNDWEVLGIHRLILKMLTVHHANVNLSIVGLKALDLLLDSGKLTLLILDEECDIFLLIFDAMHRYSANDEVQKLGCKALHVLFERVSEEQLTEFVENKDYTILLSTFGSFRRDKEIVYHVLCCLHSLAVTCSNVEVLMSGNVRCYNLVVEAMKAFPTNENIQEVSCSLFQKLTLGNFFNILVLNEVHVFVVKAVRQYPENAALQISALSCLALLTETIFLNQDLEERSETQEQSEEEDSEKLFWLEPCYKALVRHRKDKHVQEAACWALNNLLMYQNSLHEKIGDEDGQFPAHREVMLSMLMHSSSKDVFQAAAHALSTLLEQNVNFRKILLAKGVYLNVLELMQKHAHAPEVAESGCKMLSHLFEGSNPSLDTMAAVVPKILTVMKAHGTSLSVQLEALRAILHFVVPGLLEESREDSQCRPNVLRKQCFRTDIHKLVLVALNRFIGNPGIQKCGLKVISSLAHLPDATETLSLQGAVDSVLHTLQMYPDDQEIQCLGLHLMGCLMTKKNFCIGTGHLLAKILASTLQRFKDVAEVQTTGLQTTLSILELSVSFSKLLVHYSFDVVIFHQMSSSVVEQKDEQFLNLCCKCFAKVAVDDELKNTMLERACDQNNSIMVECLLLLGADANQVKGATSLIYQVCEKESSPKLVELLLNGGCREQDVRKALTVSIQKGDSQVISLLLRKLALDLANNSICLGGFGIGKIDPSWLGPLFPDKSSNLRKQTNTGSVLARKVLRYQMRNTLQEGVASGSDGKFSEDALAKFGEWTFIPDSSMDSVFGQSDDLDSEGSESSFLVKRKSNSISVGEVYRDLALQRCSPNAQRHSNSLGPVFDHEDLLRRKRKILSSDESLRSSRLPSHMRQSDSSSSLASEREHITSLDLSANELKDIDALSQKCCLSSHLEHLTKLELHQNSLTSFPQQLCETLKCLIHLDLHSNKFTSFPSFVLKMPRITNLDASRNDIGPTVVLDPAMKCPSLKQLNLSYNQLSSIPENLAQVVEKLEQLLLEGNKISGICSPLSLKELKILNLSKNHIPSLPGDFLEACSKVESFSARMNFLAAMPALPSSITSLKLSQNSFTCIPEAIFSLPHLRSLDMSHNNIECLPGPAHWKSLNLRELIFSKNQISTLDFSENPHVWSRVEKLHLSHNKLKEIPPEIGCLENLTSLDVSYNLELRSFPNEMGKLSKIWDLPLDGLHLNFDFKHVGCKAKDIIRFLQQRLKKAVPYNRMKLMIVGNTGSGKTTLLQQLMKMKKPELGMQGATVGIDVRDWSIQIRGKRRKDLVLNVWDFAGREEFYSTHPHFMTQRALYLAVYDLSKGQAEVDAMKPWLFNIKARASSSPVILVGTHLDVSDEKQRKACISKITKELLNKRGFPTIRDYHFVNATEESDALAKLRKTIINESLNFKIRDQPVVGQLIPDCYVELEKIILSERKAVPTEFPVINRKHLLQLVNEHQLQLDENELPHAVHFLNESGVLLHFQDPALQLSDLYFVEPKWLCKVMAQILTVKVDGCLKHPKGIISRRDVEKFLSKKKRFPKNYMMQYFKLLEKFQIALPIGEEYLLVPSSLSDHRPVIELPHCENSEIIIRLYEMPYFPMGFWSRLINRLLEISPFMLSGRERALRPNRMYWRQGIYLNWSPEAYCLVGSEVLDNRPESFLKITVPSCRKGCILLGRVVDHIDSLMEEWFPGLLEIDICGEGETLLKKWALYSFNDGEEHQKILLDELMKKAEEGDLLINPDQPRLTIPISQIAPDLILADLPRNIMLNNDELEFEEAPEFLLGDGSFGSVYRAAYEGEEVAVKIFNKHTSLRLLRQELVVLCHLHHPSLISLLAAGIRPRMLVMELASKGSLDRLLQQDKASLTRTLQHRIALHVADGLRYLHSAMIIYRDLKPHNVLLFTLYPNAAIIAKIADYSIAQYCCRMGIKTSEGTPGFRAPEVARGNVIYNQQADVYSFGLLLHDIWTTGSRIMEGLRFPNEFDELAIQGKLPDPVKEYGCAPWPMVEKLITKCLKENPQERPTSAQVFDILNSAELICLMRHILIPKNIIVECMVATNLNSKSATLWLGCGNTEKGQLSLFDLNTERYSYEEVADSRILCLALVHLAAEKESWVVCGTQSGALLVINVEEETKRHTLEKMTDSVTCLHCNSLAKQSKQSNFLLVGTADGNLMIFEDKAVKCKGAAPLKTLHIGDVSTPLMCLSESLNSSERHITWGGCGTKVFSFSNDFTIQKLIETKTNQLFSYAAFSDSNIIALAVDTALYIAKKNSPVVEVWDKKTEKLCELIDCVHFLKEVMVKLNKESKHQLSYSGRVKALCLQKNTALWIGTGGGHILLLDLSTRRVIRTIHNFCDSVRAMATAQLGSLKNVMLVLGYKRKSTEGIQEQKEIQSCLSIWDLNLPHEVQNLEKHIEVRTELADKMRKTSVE

T1 sequence (Q5S006 whole entry): as the sequence (Q5S006 whole entry G2019S) above, with S2019G counted along it

Question: How did the IC50 [1] turn out when `CC(=O)N1CCc2[nH]c(/C=C3\C(=O)Nc4ccc(OC(C)C)cc43)cc2C1` [Nov-LRRK2-11] was run?
Answer: 0.38 nM

Question: `Cc1cncc2cccc(S(=O)(=O)N3CCCNC[C@@H]3C)c12` [H-1152, (S)-(+)-2-methyl-1-[(4-methyl-5-isoquinoline)sulfonyl]-homopiperazine] was tested. Which “ex vivo Western blot of LRRK2 pSer935, 20 min after 1 mg/kg i.p.” value [2] did it give?
Answer: H-1152 attenuated endogenous LRRK2 phosphorylation at Ser935 in striatum but not cerebral cortex of G2019S knock-in (G2019S KI) mice
